Source: patent US20240067651A1 (Biohaven Therapeutics Ltd., priority 2019, published 2024)

Columns and labels:
[1] = Stability in Simulated Gastric Fluid (SGF); format: in vitro ADME; design: key: % parent compound remaining relative to 0-minute sample
In short: (§1)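 LC-MS/MS read-out of intact compound (2 μg/mL final) over 60 minutes at 37° C; gastric medium pH 1.2 with pepsin, intestinal medium pH 6.8 with pancreatin. Half-life from ln(% remaining) against time.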

[2] = Caco-2 Permeability Assay; format: in vitro ADME, human; settings: human
In short: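 Bidirectional transport at 37 °C for 90 min, 10 μM donor concentration, with or without Pgp inhibitor, across 21-day Caco-2 monolayers with TEER >600 […] in HEPES-buffered HBSS, pH 7.4. LC-MS/MS of donor and receiver samples gives Papp, B→A/A→B efflux ratio and mass recovery.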

Plasma Stability = format: in vitro ADME, human
In short: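 Parent compound quantified by LC-MS/MS after acetonitrile precipitation, reported as percent of control remaining (triplicate). Incubation: 1 hour, 37° C, fresh human plasma, compound at 1 μM.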

[3] = Stability in Simulated Intestinal Fluid (SIF); format: in vitro ADME; design: key: % parent compound remaining relative to 0-minute sample
In short: as §1

[4] = % remaining at 1 h in simulated gastric fluid, the 17th table
[5] = Caco-2, pH 7.4, Caco-2 monolayer, the 17th table
[6] = % remaining at 1 h in human plasma, the 17th table
[7] = % remaining at 1 h in simulated intestinal fluid, the 17th table
[8] = simulated gastric fluid, remaining at 1 h
[9] = Caco-2, pH 7.4, Caco-2 monolayer
[10] = % remaining at 1 h in simulated gastric fluid
[11] = % remaining at 1 h in human plasma
[12] = % remaining at 1 h in simulated intestinal fluid
[13] = % remaining at 1 h, SGF with pepsin pH 1.2, 2 μg/mL, 37° C.
[14] = Caco-2, pH 7.4, donor 10 μM, 90 minutes, 37° C., direction not given
[15] = % remaining at 1 h, human plasma, 1 μM, 37° C.
[16] = % remaining at 1 h, SIF with pancreatin pH 6.8, 2 μg/mL, 37° C.
[17] = bare number, unit or time not given

## CCCCCCOC(=O)OCn1c(=O)c2c(ccn2COC(=O)OCCCCCC)n(CCOC(C)C)c1=S [Example 215]
[1]; [4]
  SGF: 94% remaining
[2]; [5]
  Papp at 90 min, 10 µM: 0.214 ×10⁻⁶ cm/s
Plasma Stability; [6]
  human Plasma stability: 88% remaining
[3]; [7]
  SIF: 1% remaining

## CC(C)OCCn1c(=S)[nH]c(=O)c2c1ccn2COC(=O)CCCOC(=O)[C@H](N)Cc1ccccc1.O=C(O)C(F)(F)F [Example 362, trifluoroacetic acid {4-oxo-1-[2-(propan-2-yloxy)ethyl]-2-sulfanylidene-1H,2H,3H,4H,5H-pyrrolo[3,2-d]pyrimidin-5-yl}methyl 4-{[(2R)-2-amino-3-phenylpropanoyl]oxy}butanoate]
[1]; [8]
  SGF: 90% remaining
[2]; [9]
  Papp at 90 min, 10 µM: 5.12 ×10⁻⁶ cm/s
Plasma Stability; human plasma, remaining at 1 h
  human Plasma stability: 3% remaining
[3]; simulated intestinal fluid, remaining at 1 h
  SIF: 2% remaining

## CC(C)OCCn1c(=S)[nH]c(=O)c2c1ccn2COC(=O)CCNC(=O)[C@H](Cc1ccccc1)NC(=O)OCC1c2ccccc2-c2ccccc21.O=C(O)C(F)(F)F [Example 23]
[1]; [10]
  SGF: 93% remaining
[2]; [9]
  Papp at 90 min, 10 µM: 1.94 ×10⁻⁶ cm/s
Plasma Stability; [11]
  human Plasma stability: 92% remaining
[3]; [12]
  SIF: 84% remaining

## CC(C)OCCn1c(=S)[nH]c(=O)c2c1ccn2COC(=O)CCNC(=O)[C@@H](NC(=O)OC(C)(C)C)C(C)C [Example 11, {4-oxo-1-[2-(propan-2-yloxy)-ethyl]-2-sulfanylidene-1H,2H,3H,4H,5H-pyrrolo[3,2-d]pyrimidin-5-yl}methyl3-[(2S)-2-{[(tert-butoxy)carbonyl]amino}-3-methylbutanamido]propanoate]
[1]; [13]
  SGF: 74%
[2]; [14]
  Papp at 90 min, 10 µM: 1.44 ×10⁻⁶ cm/s
Plasma Stability; [15]
  human Plasma stability: 99%
[3]; [16]
  SIF: 69%

## CC(C)C[C@@H](N)C(=O)OCn1c(=O)c2c(ccn2COC(=O)[C@H](N)CC(C)C)n(CCOC(C)C)c1=S.O=C(O)C(F)(F)F.O=C(O)C(F)(F)F [Example 326, bis(trifluoroacetic acid) [3-({[(2R)-2-amino-4-methylpentanoyl]oxy}methyl)-4-oxo-1-[2-(propan-2-yloxy)ethyl]-2-sulfanylidene-1H,2H,3H,4H,5H-pyrrolo [3,2-d]pyrimidin-5-yl]methyl (2R)-2-amino-4-methylpentanoate]
[1]; % remaining @ 1 h
  SGF: 97%@ 1 h
[2]; Caco-2, pH 7.4
  Papp at 90 min, 10 µM: < 0.338 ×10⁻⁶ cm/s
Plasma Stability; % remaining @ 1 h
  human Plasma stability: 17%@ 1 h
[3]; % remaining @ 1 h
  SIF: 9%@ 1 h

## CC(C)OCCn1c(=S)[nH]c(=O)c2c1ccn2COC(=O)OCCOCCNC(=O)OC(C)(C)C [Example 120]
[1]; [10]
  SGF: 83% remaining
[2]; [9]
  Papp at 90 min, 10 µM: 14.9 ×10⁻⁶ cm/s
Plasma Stability; [11]
  human Plasma stability: 30% remaining
[3]; [12]
  SIF: 64% remaining

## CCCCCCOC(=O)OCSc1nc(=O)c2c(ccn2COC(=O)OCCCCCC)n1CCOC(C)C [Example 214]
[1]; [4]
  SGF: 80% remaining
[2]; [5]
  Papp at 90 min, 10 µM: 1.63 ×10⁻⁶ cm/s
Plasma Stability; [6]
  human Plasma stability: 77% remaining
[3]; [7]
  SIF: 2% remaining

## CC(C)OCCn1c(=S)[nH]c(=O)c2c1ccn2COC(=O)CCNC(=O)[C@@H](NC(=O)OC(C)(C)C)[C@@H](C)O.O=C(O)C(F)(F)F [Example 36]
[1]; [10]
  SGF: 95% remaining
[2]; [9]
  Papp at 90 min, 10 µM: 0.835 ×10⁻⁶ cm/s
Plasma Stability; [11]
  human Plasma stability: 79% remaining
[3]; [12]
  SIF: 88% remaining

## CC(C)C[C@H](NC(=O)OC(C)(C)C)C(=O)OCn1c(=O)c2c(ccn2COC(=O)[C@H](CC(C)C)NC(=O)OC(C)(C)C)n(CCOC(C)C)c1=S [Example 316, [3-({[(2S)-2-{[(tert-butoxy)carbonyl]amino}-4-methylpentanoyl]oxy}methyl)-4-oxo-1-[2-(propan-2-yloxy)ethyl]-2-sulfanylidene-1H,2H,3H,4H,5H-pyrrolo [3,2-d]pyrimidin-5-yl]methyl (2S)-2-{[(tert-butoxy)carbonyl]amino}-4-methylpentanoate]
[1]; % remaining @ 1 h
  SGF: 99%@ 1 h
[2]; Caco-2, pH 7.4
  Papp at 90 min, 10 µM: 7.6 ×10⁻⁶ cm/s
Plasma Stability; % remaining @ 1 h
  human Plasma stability: 37%@ 1 h
[3]; % remaining @ 1 h
  SIF: 6%@ 1 h

## CC(C)OCCn1c(=S)[nH]c(=O)c2c1ccn2COC(=O)CCNC(=O)[C@@H]1CCC(=O)N1C.O=C(O)C(F)(F)F [Example 64]
[1]; [10]
  SGF: 98% remaining
[2]; [9]
  Papp at 90 min, 10 µM: < 0.19 ×10⁻⁶ cm/s
Plasma Stability; [11]
  human Plasma stability: 76% remaining
[3]; [12]
  SIF: 97% remaining

## CC[C@H](C)[C@H](NC(=O)OC(C)(C)C)C(=O)NCCC(=O)OCn1ccc2c1c(=O)[nH]c(=S)n2CCOC(C)C [Example 34]
[1]; [10]
  SGF: 85% remaining
[2]; [9]
  Papp at 90 min, 10 µM: 10.7 ×10⁻⁶ cm/s
Plasma Stability; [11]
  human Plasma stability: 93% remaining
[3]; [12]
  SIF: 90% remaining

## CC(C)OCCn1c(=S)[nH]c(=O)c2c1ccn2COC(=O)CCCCOC(=O)[C@@H](N)C(C)C.O=C(O)C(F)(F)F [Example 335, trifluoroacetic acid {4-oxo-1-[2-(propan-2-yloxy)ethyl]-2-sulfanylidene-1H,2H,3H,4H,5H-pyrrolo[3,2-d]pyrimidin-5-yl}methyl 5-{[(2S)-2-amino-3-methylbutanoyl]oxy}pentanoate]
[1]; [17]
  SGF: 99
[2]; Caco-2, pH 7.4
  Papp at 90 min, 10 µM: 3.32 ×10⁻⁶ cm/s
Plasma Stability; % remaining @ 1 h
  human Plasma stability: 3% remaining
[3]; [17]
  SIF: 9

## CCCCNC(=O)OCSc1nc(=O)c2c(ccn2C(=O)NCCCC)n1CCOC(C)C [Example 194]
[1]; % remaining at 1 h in simulated gastric fluid, the 15th table
  SGF: 99% remaining
[2]; Caco-2, pH 7.4, Caco-2 monolayer, the 15th table
  Papp at 90 min, 10 µM: 42.9 ×10⁻⁶ cm/s
Plasma Stability; % remaining at 1 h in human plasma, the 15th table
  human Plasma stability: 97% remaining
[3]; % remaining at 1 h in simulated intestinal fluid, the 15th table
  SIF: 59% remaining

## CC(C)OCCn1c(=S)[nH]c(=O)c2c1ccn2C(C)OC(=O)c1ccccc1 (stereo not shown) [Example 115, 1-{4-oxo-1-[2-(propan-2-yloxy)ethyl]-2-sulfanylidene-1H,2H,3H,4H,5H-pyrrolo[3,2-d]pyrimidin-5-yl}ethyl benzoate]
[1]; [13]
  SGF: 63%
[2]; [14]
  Papp at 90 min, 10 µM: 8.05 ×10⁻⁶ cm/s
Plasma Stability; [15]
  human Plasma stability: 59%
[3]; [16]
  SIF: 67%

## CC(C)OCCn1c(=S)[nH]c(=O)c2c1ccn2C(=O)OC(C)C [Example 231]
[1]; simulated gastric fluid, at 1 h
  SGF: 100% remaining
[2]; [9]
  Papp at 90 min, 10 µM: 3.63 ×10⁻⁶ cm/s
Plasma Stability; human plasma, at 1 h
  human Plasma stability: 0% remaining
[3]; simulated intestinal fluid, at 1 h
  SIF: 40% remaining

## CSCC[C@H](NC(=O)OCC1c2ccccc2-c2ccccc21)C(=O)NCCC(=O)OCn1ccc2c1c(=O)[nH]c(=S)n2CCOC(C)C.O=C(O)C(F)(F)F [Example 21]
[1]; [10]
  SGF: 88% remaining
[2]; [9]
  Papp at 90 min, 10 µM: 5.79 ×10⁻⁶ cm/s
Plasma Stability; [11]
  human Plasma stability: 91% remaining
[3]; [12]
  SIF: 75% remaining

## CC(C)OCCn1c(=S)[nH]c(=O)c2c1ccn2COC(=O)CCCCCCCCCCCCCCC(=O)O [Example 255, 16-oxo-16-({4-oxo-1-[2-(propan-2-yloxy)ethyl]-2-sulfanylidene-1H,2H,3H,4H,5H-pyrrolo[3,2-d]pyrimidin-5-yl}methoxy)hexadecanoic acid]
[1]; [13]
  SGF: 95%
[2]; [14]
  Papp at 90 min, 10 µM: 2.72 ×10⁻⁶ cm/s
Plasma Stability; [15]
  human Plasma stability: 76%
[3]; [16]
  SIF: 2%

## CC(C)OCCn1c(SCOC(=O)CCCOC(=O)[C@H](N)C(C)C)nc(=O)c2c1ccn2COC(=O)CCCOC(=O)[C@H](N)C(C)C.O=C(O)C(F)(F)F.O=C(O)C(F)(F)F [Example 358, bis(trifluoroacetic acid) 4-(((5-(((4-((D-valyl)oxy)butanoyl)oxy)methyl)-1-(2-isopropoxyethyl)-4-oxo-4,5-dihydro-1H-pyrrolo[3,2-d]pyrimidin-2-yl)thio)methoxy)-4-oxobutyl D-valinate]
[1]; [8]
  SGF: 80% remaining
[2]; [9]
  Papp at 90 min, 10 µM: 1.78 ×10⁻⁶ cm/s
Plasma Stability; human plasma, remaining at 1 h
  human Plasma stability: 12% remaining
[3]; simulated intestinal fluid, bare number, unit or time not given
  SIF: 48

## CC(C)OCCn1c(=S)[nH]c(=O)c2c1ccn2COC(=O)CCCCNC(=O)[C@H](Cc1ccccc1)NC(=O)OCC1c2ccccc2-c2ccccc21.O=C(O)C(F)(F)F [Example 22]
[1]; [10]
  SGF: 87% remaining
[2]; [9]
  Papp at 90 min, 10 µM: 0.647 ×10⁻⁶ cm/s
Plasma Stability; [11]
  human Plasma stability: 74% remaining
[3]; [12]
  SIF: 90% remaining
